# Results from patent publication EP4786451A1, “COMPOUND TARGETING INTEGRIN AND USE THEREOF IN RNAI AGENT” (YUN HO BIO CO., LTD, priority 2023, dated 2025).
# Several values for one entry are separate records, joined by “and”; a condition that tells them apart may be missing. Equal values may be shown once. Read-outs that look alike come from different tables or passages of the source.
# Columns and labels:
# Integrin αvβ6 Receptor [1] = target: T1, Integrin αvβ6 Receptor (Homo sapiens, UniProt P06756+P18564); experiment: HTRF binding activity to integrin αvβ6 receptor (competition with LAP (TGF-beta 1)); details: for Hillslope: fit parameter of the inhibition curve; for Max: maximum of the inhibition curve; for Min: minimum of the inhibition curve; for specific binding ability to the αvβ6 receptor: αvβ6 compared with αvβ1 and αvβ5
# T1 sequence (P06756 31-992 limits assumed): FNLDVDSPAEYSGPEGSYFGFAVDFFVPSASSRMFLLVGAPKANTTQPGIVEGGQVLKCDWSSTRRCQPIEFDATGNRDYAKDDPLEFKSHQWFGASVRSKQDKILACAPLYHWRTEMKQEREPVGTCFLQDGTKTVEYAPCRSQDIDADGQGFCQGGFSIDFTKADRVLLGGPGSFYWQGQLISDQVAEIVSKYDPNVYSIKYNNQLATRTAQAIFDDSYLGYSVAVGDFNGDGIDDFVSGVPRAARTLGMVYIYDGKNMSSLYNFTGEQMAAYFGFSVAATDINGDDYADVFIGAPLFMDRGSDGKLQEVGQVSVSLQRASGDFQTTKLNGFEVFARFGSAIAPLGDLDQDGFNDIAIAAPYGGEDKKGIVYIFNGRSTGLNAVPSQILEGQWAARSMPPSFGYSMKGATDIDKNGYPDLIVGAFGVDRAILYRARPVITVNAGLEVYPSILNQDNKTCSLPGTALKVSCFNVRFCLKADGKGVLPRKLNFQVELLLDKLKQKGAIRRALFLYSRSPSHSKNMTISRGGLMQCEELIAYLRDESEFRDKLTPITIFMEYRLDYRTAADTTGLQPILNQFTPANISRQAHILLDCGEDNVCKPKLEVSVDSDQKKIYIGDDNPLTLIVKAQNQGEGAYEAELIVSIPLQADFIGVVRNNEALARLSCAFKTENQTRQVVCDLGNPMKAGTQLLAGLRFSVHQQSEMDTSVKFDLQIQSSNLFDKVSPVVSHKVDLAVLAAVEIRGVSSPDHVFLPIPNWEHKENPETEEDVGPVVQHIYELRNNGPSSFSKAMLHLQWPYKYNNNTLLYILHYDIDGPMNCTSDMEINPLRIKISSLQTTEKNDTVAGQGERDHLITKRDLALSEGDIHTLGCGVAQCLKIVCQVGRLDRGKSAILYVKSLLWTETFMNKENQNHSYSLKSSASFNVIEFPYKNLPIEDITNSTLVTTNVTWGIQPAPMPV
# T1 sequence (P18564 22-707 limits assumed): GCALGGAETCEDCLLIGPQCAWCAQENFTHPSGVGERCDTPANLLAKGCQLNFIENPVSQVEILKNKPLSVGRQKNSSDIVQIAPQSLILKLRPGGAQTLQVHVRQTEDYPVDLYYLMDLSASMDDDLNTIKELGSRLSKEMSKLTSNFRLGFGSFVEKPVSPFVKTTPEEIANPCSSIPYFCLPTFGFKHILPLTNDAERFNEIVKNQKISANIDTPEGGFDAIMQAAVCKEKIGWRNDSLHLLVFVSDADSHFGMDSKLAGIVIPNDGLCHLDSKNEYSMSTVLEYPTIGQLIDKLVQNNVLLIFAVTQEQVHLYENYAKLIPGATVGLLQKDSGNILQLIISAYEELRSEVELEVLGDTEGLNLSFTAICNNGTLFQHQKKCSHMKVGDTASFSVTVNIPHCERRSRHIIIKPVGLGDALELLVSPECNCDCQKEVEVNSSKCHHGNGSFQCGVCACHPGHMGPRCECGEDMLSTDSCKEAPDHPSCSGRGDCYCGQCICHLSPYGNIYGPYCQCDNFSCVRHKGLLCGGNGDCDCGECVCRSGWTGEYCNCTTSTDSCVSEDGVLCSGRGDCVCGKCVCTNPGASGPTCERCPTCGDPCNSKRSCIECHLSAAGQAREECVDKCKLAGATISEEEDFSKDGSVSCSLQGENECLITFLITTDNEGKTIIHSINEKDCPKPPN
# Description: Main Experimental Reagents and Consumables
# Inhibition rate and fit IC50 was calculated using Excel and XL-Fit respectively, formula as follows: Inhibition % = (Max−Signal)/(Max−Min)*100 [formula] Y = Bottom + (Top−Bottom)/(1+(IC50/X)[…]), [formula] Y and X represent %inhibition and compound concentration respectively
# Integrin αvβ6 Receptor [2] = target: T1, Integrin αvβ6 Receptor; experiment: as above; details: for Emax: maximum of the inhibition curve, read-out: Max; for IC50: table of 5FAM-labelled compounds; for Hillslope: fit parameter of the inhibition curve
# Description: Reagent Preparation: Assay buffer was prepared.
# Integrin αvβ1 Receptor = Integrin αvβ1 Receptor (Homo sapiens, UniProt P05556+P06756); experiment: Fluorescence polarization (FP) binding activity to integrin αvβ1 receptor (competition with Cyclo[-RGDy-K(5-FAM)]); details: Table 4, different integrin receptors
# Sequence of Integrin αvβ1 Receptor (P06756 31-992 limits assumed): as the sequence (P06756 31-992 limits assumed) above
# Sequence of Integrin αvβ1 Receptor (P05556 21-728 limits assumed): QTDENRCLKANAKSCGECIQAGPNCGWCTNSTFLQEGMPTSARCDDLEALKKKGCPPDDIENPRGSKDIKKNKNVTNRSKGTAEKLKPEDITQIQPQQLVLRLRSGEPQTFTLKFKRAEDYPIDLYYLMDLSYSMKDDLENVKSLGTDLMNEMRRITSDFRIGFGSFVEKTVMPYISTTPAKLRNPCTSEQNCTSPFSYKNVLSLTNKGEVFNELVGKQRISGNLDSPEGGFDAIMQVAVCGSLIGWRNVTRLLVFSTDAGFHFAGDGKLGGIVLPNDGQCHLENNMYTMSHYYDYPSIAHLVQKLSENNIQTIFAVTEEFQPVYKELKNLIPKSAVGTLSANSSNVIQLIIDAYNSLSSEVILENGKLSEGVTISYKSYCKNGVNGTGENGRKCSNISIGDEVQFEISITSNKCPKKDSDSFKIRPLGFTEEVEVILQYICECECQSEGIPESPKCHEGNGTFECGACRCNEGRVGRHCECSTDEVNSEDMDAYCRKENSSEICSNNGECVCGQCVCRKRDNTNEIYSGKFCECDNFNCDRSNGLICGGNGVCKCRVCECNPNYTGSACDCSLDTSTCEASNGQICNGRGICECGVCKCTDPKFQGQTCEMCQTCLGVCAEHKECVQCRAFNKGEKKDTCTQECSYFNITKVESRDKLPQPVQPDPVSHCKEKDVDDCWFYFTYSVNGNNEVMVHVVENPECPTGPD
# Integrin αvβ5 Receptor = Integrin αvβ5 Receptor (Homo sapiens, UniProt P06756+P18084); experiment: HTRF binding activity to integrin αvβ5 receptor (competition with Vitronectin)
# Sequence of Integrin αvβ5 Receptor (P06756 31-992 limits assumed): as the sequence (P06756 31-992 limits assumed) above
# Sequence of Integrin αvβ5 Receptor (P18084 24-719 limits assumed): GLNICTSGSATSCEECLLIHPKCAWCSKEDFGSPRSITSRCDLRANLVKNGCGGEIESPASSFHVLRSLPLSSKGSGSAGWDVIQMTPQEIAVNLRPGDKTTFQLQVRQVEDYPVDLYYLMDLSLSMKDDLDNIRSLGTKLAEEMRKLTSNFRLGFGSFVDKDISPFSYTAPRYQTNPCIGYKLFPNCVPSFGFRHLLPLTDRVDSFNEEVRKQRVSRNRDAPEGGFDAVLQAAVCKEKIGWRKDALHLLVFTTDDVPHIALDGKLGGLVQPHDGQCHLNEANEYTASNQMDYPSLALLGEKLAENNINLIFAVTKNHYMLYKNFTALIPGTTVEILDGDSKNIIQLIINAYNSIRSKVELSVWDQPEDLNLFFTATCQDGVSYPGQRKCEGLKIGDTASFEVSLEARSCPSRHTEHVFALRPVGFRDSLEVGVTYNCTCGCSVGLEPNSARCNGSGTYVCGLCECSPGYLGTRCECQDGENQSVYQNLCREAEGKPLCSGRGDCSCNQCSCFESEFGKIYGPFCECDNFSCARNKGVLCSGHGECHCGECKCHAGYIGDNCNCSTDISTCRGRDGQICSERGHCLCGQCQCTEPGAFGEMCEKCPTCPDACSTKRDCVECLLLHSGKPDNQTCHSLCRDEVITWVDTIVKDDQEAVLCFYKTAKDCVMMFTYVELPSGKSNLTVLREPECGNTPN
# Description: B. Evaluation of Compound Binding Activity to Integrin αvβ5 Receptor using Homogeneous Time-Resolved Fluorescence (HTRF) Technology
# Compound Preparation: Same as A.
# Then 5 µL of integrin receptor protein αvβ5 was added (5 µL of assay buffer was added for negative control), incubated at room temperature for 20 minutes. Next, 5 µL of ligand protein VTN, and 10 µL of the SA-Tb and Anti-His XL665 mixture were added respectively, incubated at room temperature for 1 hour.
# [3] = Integrin αvβ6, HTRF, Table 3, several runs, each with Cilengitide and 1 as references, read-out: IC50
# [4] = Integrin αvβ6, HTRF, table of 5FAM-labelled compounds, read-out: IC50
# [5] = Table 4, different integrin receptors, read-out: IC50 (nM) αvβ6
# [6] = IC50 (nM) αvβ5, Table 4, different integrin receptors
compound,measurement,setting,value
[N-]=[N+]=NCCOCCOCCOCCOCCOc1ccc(C(CC(=O)O)CN2CCC(CCc3ccc4c(n3)NCCC4)C2)cc1 (stereo not drawn) [Compound 20-P2],IC50,Integrin αvβ6 Receptor [1]; [3],13.4 nM
Cc1ccnc(NCCCC(=O)NCC(=O)N[C@@H](CC(=O)O)c2ccc(-c3ccc(OCCOCCOCCOCCOCCn4cc(CNC(=O)c5ccc6c(c5)C(=O)OC65c6ccc(O)cc6Oc6cc(O)ccc65)nn4)c4ccccc34)cc2)c1 [Compound 1-5FAM],Emax,Integrin αvβ6 Receptor [2],97%
same,IC50,Integrin αvβ6 Receptor [2],1.41 nM
O=C(O)CC(NC(=O)CCCCc1nc2c(cc1CNC(=O)CCOCCOCCOCCOCCNC(=O)c1ccc3c(c1)C(=O)OC31c3ccc(O)cc3Oc3cc(O)ccc31)CCCN2)c1ccc(-c2cccc3ccccc23)cc1 (stereo not drawn) [Compound 9-5FAM],Hillslope,"Integrin αvβ6 Receptor [1]; Integrin αvβ6, HTRF",2.0
same,Max,"Integrin αvβ6 Receptor [1]; Integrin αvβ6, HTRF",103.1
same,Min,"Integrin αvβ6 Receptor [1]; Integrin αvβ6, HTRF",-2.2
same,IC50,Integrin αvβ6 Receptor [1]; [4],1.48 nM
"Cc1ccnc(NCCC2CCN(CC(=O)NC(CC(=O)O)c3ccc(-c4ccc(OCCOCCOCCOCCOCCN=[N+]=[N-])c5ccccc45)cc3)C2=O)c1 (single isomer, unassigned) [Compound 5-P2]",IC50,Integrin αvβ1 Receptor,333 nM
same,IC50,Integrin αvβ6 Receptor [1]; [3],3.9 nM
same,IC50,Integrin αvβ6 Receptor [1]; [5],3.9 nM
same,specific binding ability to the αvβ6 receptor,Integrin αvβ6 Receptor [1],specific binding ability to the αvβ6 receptor
same,IC50,Integrin αvβ5 Receptor; [6],142 nM
[N-]=[N+]=NCCOCCOCCOCCOCCOc1ccc(C(CC(=O)O)CN2CCC(CCc3ccc4c(n3)NCCC4)C2)cc1F (stereo not drawn) [Compound 83],IC50,Integrin αvβ6 Receptor [1]; [3],3.7 nM
[N-]=[N+]=NCCOCCOCCOCCOCCOc1ccc(-c2ccc(C(CC(=O)O)CN3CCC(CCc4ccc5c(n4)NCCC5)C3)cc2)c2ccccc12 (stereo not drawn) [Compound 49],IC50,Integrin αvβ6 Receptor [1]; [3],3.1 nM
COCCN(CCCCc1ccc2c(n1)NCCC2)CC[C@H](Nc1ncnc2cc(OCCOCCOCCOCCOCCn3cc(CNC(=O)c4ccc5c(c4)C(=O)OC54c5ccc(O)cc5Oc5cc(O)ccc54)nn3)ccc12)C(=O)O [Compound 17-5FAM],Hillslope,Integrin αvβ6 Receptor [2],1.5
same,Emax,Integrin αvβ6 Receptor [2],98.9%
same,IC50,Integrin αvβ6 Receptor [2],7.99 nM
CNc1cccc(CCCCC(=O)N[C@@H](CC(=O)O)c2ccc(-c3ccc(OCCOCCOCCOCCOCCn4cc(CNC(=O)c5ccc6c(c5)C(=O)OC65c6ccc(O)cc6Oc6cc(O)ccc65)nn4)c4ccccc34)cc2)n1 [Compound 7-5FAM],Hillslope,Integrin αvβ6 Receptor [2],1.2
same,Emax,Integrin αvβ6 Receptor [2],102%
same,IC50,Integrin αvβ6 Receptor [2],3.17 nM
COCCOc1cc(OCCOCCOCCOCCOCCN=[N+]=[N-])cc(C(CC(=O)O)CN2CCC(CCc3ccc4c(n3)NCCC4)C2)c1 (stereo not drawn) [Compound 57],IC50,Integrin αvβ6 Receptor [1]; [3],3.3 nM
"[N-]=[N+]=NCCOCCOCCOCCOCCOc1cccc([C@H](CC(=O)O)CN2CC[C@@H](CCc3ccc4c(n3)NCCC4)C2)c1 (single isomer, unassigned) [Compound 18-P1]",IC50,Integrin αvβ1 Receptor,9.1 nM
same,IC50,Integrin αvβ6 Receptor [1]; [3],3.2 nM
same,IC50,Integrin αvβ6 Receptor [1]; [5],3.2 nM
same,IC50,Integrin αvβ5 Receptor; [6],0.6 nM
[N-]=[N+]=NCCOCCOCCOCCOCCOc1cccc(C(CC(=O)O)CN2CCC(CCc3ccc4c(n3)NCCC4)C2)c1 (stereo not drawn) [Compound 18-P2],IC50,Integrin αvβ6 Receptor [1]; [3],13.9 nM
[N-]=[N+]=NCCOCCOCCOCCOCCOc1ccc(-c2ccc([C@H](CC(=O)O)NC(=O)CCCCc3ccc4c(n3)NCCC4)cc2)c2ccccc12 [Compound 8],Hillslope,"Integrin αvβ6 Receptor [1]; Integrin αvβ6, HTRF",2.5
same,Max,"Integrin αvβ6 Receptor [1]; Integrin αvβ6, HTRF",107.0
same,Min,"Integrin αvβ6 Receptor [1]; Integrin αvβ6, HTRF",-2.0
same,IC50,Integrin αvβ6 Receptor [1]; [4],1.37 nM
[N-]=[N+]=NCCOCCOCCOCCOCCOc1cc(-c2ccccc2)cc(C(CC(=O)O)CN2CCC(CCc3ccc4c(n3)NCCC4)C2)c1 (stereo not drawn) [Compound 59],IC50,Integrin αvβ6 Receptor [1]; [3],2.9 nM
O=C(NCc1cn(CCOCCOCCOCCOCCOCCN(CCCCc2ccc3c(n2)NCCC3)CC[C@H](Nc2ncnc3ccccc23)C(=O)O)nn1)c1ccc2c(c1)C(=O)OC21c2ccc(O)cc2Oc2cc(O)ccc21 [Compound 16-5FAM],Hillslope,Integrin αvβ6 Receptor [2],1.4
same,Emax,Integrin αvβ6 Receptor [2],101%
same,IC50,Integrin αvβ6 Receptor [2],1.77 nM
Cc1cc(C)n(-c2cccc(C(CC(=O)O)CN3CCC(CCc4nc5c(cc4CNC(=O)CCOCCOCCOCCOCCN=[N+]=[N-])CCCN5)C3)c2)n1 (stereo not drawn) [Compound 13],IC50,Integrin αvβ6 Receptor [1]; [3],2.5 nM and 1.7 nM
COC(=O)C[C@H](NC(=O)CNC(=O)CCCN(C(=O)OC(C)(C)C)c1cc(C)ccn1)c1ccc(-c2ccc(OCCOCCOCCOCCOCCn3cc(CNC(=O)c4ccc5c(c4)C(=O)OC54c5ccc(O)cc5Oc5cc(O)ccc54)nn3)c3ccccc23)cc1 [Compound 1NG-5FAM],Hillslope,Integrin αvβ6 Receptor [2],2.5
same,Emax,Integrin αvβ6 Receptor [2],100%
same,IC50,Integrin αvβ6 Receptor [2],41.9 nM
[N-]=[N+]=NCCOCCOCCOCCOCCOc1ccc(-c2ccc(C(CC(=O)O)CN3CCC(CCc4ccc5c(n4)NCCC5)C3)cc2)cc1 (stereo not drawn) [Compound 84],IC50,Integrin αvβ6 Receptor [1]; [3],3.8 nM
Cc1ccnc(NCCCC(=O)NCC(=O)N[C@@H](CC(=O)O)c2ccc(-c3ccc(OCCOCCOCCOCCOCCn4cc(COCCOCCNC(=O)CCC(CCC(=O)NCCOCCOCc5cn(CCOCCOCCOCCOCCOc6ccc(-c7ccc([C@H](CC(=O)O)NC(=O)CNC(=O)CCCNc8cc(C)ccn8)cc7)c7ccccc67)nn5)(CCC(=O)NCCOCCOCc5cn(CCOCCOCCOCCOCCOc6ccc(-c7ccc([C@H](CC(=O)O)NC(=O)CNC(=O)CCCNc8cc(C)ccn8)cc7)c7ccccc67)nn5)NC(=O)CCCC(=O)NCCCCCCNC(=O)c5ccc6c(c5)C(=O)OC65c6ccc(O)cc6Oc6cc(O)ccc65)nn4)c4ccccc34)cc2)c1 [Compound 1-3-5FAM],Hillslope,Integrin αvβ6 Receptor [2],1.6
same,Emax,Integrin αvβ6 Receptor [2],107%
same,IC50,Integrin αvβ6 Receptor [2],2.52 nM
[N-]=[N+]=NCCOCCOCCOCCOCCOc1cc(C(CC(=O)O)CN2CCC(CCc3ccc4c(n3)NCCC4)C2)ccc1F (stereo not drawn) [Compound 86],IC50,Integrin αvβ6 Receptor [1]; [3],4.5 nM
Cc1nc(C)n(CCOCCOCCOCCOCCN=[N+]=[N-])c1-c1cccc(C(CC(=O)O)CN2CC[C@@H](CCc3ccc4c(n3)NCCC4)C2)c1 (stereo partly drawn) [Compound 15],IC50,Integrin αvβ6 Receptor [1]; [3],2.5 nM
[N-]=[N+]=NCCOCCOCCOCCOCCOc1ccc(F)c(C(CC(=O)O)CN2CCC(CCc3ccc4c(n3)NCCC4)C2)c1 (stereo not drawn) [Compound 53],IC50,Integrin αvβ6 Receptor [1]; [3],3.8 nM
"Cc1nn(-c2cccc(C(CC(=O)O)CN3CC[C@@H](CCc4ccc5c(n4)NCCC5)C3)c2)c(C)c1OCCOCCOCCOCCOCCN=[N+]=[N-] (single isomer, unassigned) [Compound 14-P1]",IC50,Integrin αvβ6 Receptor [1]; [3],9.4 nM
"Cc1nn(-c2cccc(C(CC(=O)O)CN3CC[C@@H](CCc4ccc5c(n4)NCCC5)C3)c2)c(C)c1OCCOCCOCCOCCOCCN=[N+]=[N-] (single isomer, unassigned) [Compound 14-P2]",IC50,Integrin αvβ1 Receptor,10.3 nM
same,IC50,Integrin αvβ6 Receptor [1]; [3],3.5 nM
same,IC50,Integrin αvβ6 Receptor [1]; [5],3.9 nM
same,IC50,"Integrin αvβ5 Receptor; read-out: IC50 (nM) αvβ5, Table 4, different integrin receptors",0.7 nM
"CC(C)[C@H]1C(=O)N[C@@H](CCCNC(=N)N)C(=O)NCC(=O)N[C@@H](CC(=O)O)C(=O)N[C@H](Cc2ccccc2)C(=O)N1C [Cilengitide, reference compound]",Hillslope,Integrin αvβ6 Receptor [2],1.2
same,Emax,Integrin αvβ6 Receptor [2],98.2%
[N-]=[N+]=NCCOCCOCCOCCOCCOc1cccc2c(-c3ccc(C(CC(=O)O)CN4CCC(CCc5ccc6c(n5)NCCC6)C4)cc3)cccc12 (stereo not drawn) [Compound 71],IC50,Integrin αvβ6 Receptor [1]; [3],3 nM
Cc1nn(-c2cccc(C(CC(=O)O)CN3CC[C@@H](CCc4ccc5c(n4)NCCC5)C3)c2)c(C)c1OCCOCCOCCOCCOCCN=[N+]=[N-] (stereo partly drawn) [Compound 14],IC50,Integrin αvβ6 Receptor [1]; [3],4.9 nM and 2.8 nM
CNc1cccc(CC(=O)NCC(=O)N[C@@H](CC(=O)O)c2ccc(-c3ccc(OCCOCCOCCOCCOCCn4cc(CNC(=O)c5ccc6c(c5)C(=O)OC65c6ccc(O)cc6Oc6cc(O)ccc65)nn4)c4ccccc34)cc2)n1 [Compound 6-5FAM],Hillslope,Integrin αvβ6 Receptor [2],1.2
same,Emax,Integrin αvβ6 Receptor [2],95.8%
same,IC50,Integrin αvβ6 Receptor [2],1.6 nM
"[N-]=[N+]=NCCOCCOCCOCCOCCOc1ccc([C@H](CC(=O)O)CN2CC[C@@H](CCc3ccc4c(n3)NCCC4)C2)cc1 (single isomer, unassigned) [Compound 20-P1]",IC50,Integrin αvβ1 Receptor,8.1 nM
same,IC50,Integrin αvβ6 Receptor [1]; [3],3.7 nM
same,IC50,Integrin αvβ6 Receptor [1]; [5],3.7 nM
same,IC50,Integrin αvβ5 Receptor; [6],0.7 nM
"Cc1ccnc(NCCC2CCN(CC(=O)NC(CC(=O)O)c3ccc(-c4ccc(OCCOCCOCCOCCOCCN=[N+]=[N-])c5ccccc45)cc3)C2=O)c1 (single isomer, unassigned) [Compound 5-P1]",IC50,Integrin αvβ1 Receptor,753 nM
same,IC50,Integrin αvβ6 Receptor [1]; [3],3.6 nM
same,IC50,Integrin αvβ6 Receptor [1]; [5],3.6 nM
same,specific binding ability to the αvβ6 receptor,Integrin αvβ6 Receptor [1],specific binding ability to the αvβ6 receptor
same,IC50,Integrin αvβ5 Receptor; [6],83.4 nM
Cc1ccnc(NCCCC(=O)N2CCN(C(CC(=O)O)c3ccc(-c4ccc(OCCOCCOCCOCCOCCn5cc(CNC(=O)c6ccc7c(c6)C(=O)OC76c7ccc(O)cc7Oc7cc(O)ccc76)nn5)c5ccccc45)cc3)CC2)c1 (stereo not drawn) [Compound 4-5FAM],Hillslope,Integrin αvβ6 Receptor [2],1.1
same,Emax,Integrin αvβ6 Receptor [2],100%
Cc1ccnc(NCCC2CCN(CC(=O)N[C@@H](CC(=O)O)c3ccc(-c4ccc(OCCOCCOCCOCCOCCn5cc(CNC(=O)c6ccc7c(c6)C(=O)OC76c7ccc(O)cc7Oc7cc(O)ccc76)nn5)c5ccccc45)cc3)C2=O)c1 (stereo partly drawn) [Compound 5-5FAM],Hillslope,Integrin αvβ6 Receptor [2],1.3
same,Emax,Integrin αvβ6 Receptor [2],107%
O=C(O)c1ccc2c(c1)C(=O)OC21c2ccc(O)cc2Oc2cc(O)ccc21 [Compound 5FAM],Hillslope,"Integrin αvβ6 Receptor [1]; Integrin αvβ6, HTRF",-11.5
same,Max,"Integrin αvβ6 Receptor [1]; Integrin αvβ6, HTRF",6.3
same,Min,"Integrin αvβ6 Receptor [1]; Integrin αvβ6, HTRF",-2.8
same,IC50,Integrin αvβ6 Receptor [1]; [4],> 100 nM
"Cc1ccnc(NCCCC(=O)NCC(=O)N[C@@H](CC(=O)O)c2ccc(-c3ccc(OCCOCCOCCOCCOCCN=[N+]=[N-])c4ccccc34)cc2)c1 [Compound 1, reference compound]",IC50,Integrin αvβ1 Receptor,9.7 nM
same,IC50,Integrin αvβ6 Receptor [1]; [3],2.5 nM and 2.3 nM
same,IC50,Integrin αvβ6 Receptor [1]; [5],2.5 nM
same,IC50,Integrin αvβ5 Receptor; [6],3.4 nM
